Assay results from patent publication US20050026845A1, “Pharmaceutical/cosmetic compositions comprising the lysine-D-proline-valine tripeptide” (priority 1995, published 2005).
Non-standard residues stand in square brackets, D forms with d. Residues, ends and D or L forms follow the SMILES beside them.

Key:
[1] = tested on: catagenic papilla cells; assay: Inhibition of IL-1α-induced production of PGE2 by catagenic papilla cells cultured in vitro; type: cell-based; settings: 10 μM tripeptide; for PGE2: IL-1α 10 ng/ml, control 9.2, IL-1α alone 100.2; for % inhibition: PGE2 induced by IL-1α 10 ng/ml
Experimental: Measurement of the inhibition of the production of PGE2 by catagenic papilla cells cultured in vitro.
The cells (1,000 per well), at the 24th passage, were incubated in 199 medium marketed by Gibco in the presence of 1% foetal calf serum and of antibiotics. 20 hours later, the medium was replaced by an identical medium, but containing the tripeptides to be evaluated at a final concentration of 10 μM. 5 hours later, interleukin-1α was added at a final concentration of 10 ng/ml. 20 hours later, the PGE2 levels produced by the cultured papilla cells were evaluated by means of a Biotrack kit marketed by Amersham, the manufacturer's instructions being followed. This method thus made it possible to evaluate the inhibiting effect of these tripeptides on the production of PGE2 induced by a proinflammatory cytokine: interleukin-1α.

[2] = tested on: IL-1α; assay: Expression of the mRNAs of IL-1α from the IL-1α/GAPDH ratio, plucked hairs of two donors, 20 hours; type: cell-based, human
Experimental: Inhibiting effect of Ac-LPV-NH2* on the expression of the mRNAs of IL-1α, calculated from the IL-1α/GAPDH ratio.
5 hairs were plucked from two different donors and were then incubated for 20 hours at 37° C. (5% CO2) in Williams' medium E supplemented with antibiotics and with glutamine and in the presence of Ac-LPV-NH2* at the concentrations indicated. A control was carried out in which there was no peptide added.

[3] = tested on: type-1 IL-1 receptor (IL-1R1); assay: Expression of type-1 IL-1 receptor mRNA in plucked hairs (RT-PCR, relative to GAPDH), 3 h 30 min; type: cell-based, human; settings: treated batch vs control batch (100%), dose not given
Experimental: (§1) Inhibition of the expression of the messenger RNAs of proinflammatory and inflammatory cytokines in response to the Ac-LPV-NH2* tripeptide.
(§2) Ten plucked hairs were removed from the region of the vertex of a volunteer suffering from inflammatory alopecia. These were placed in a Williams' survival medium E (marketed by Gibco BRL) containing penicillin G (100 units/ml), streptomycin S (100 μg/ml) and amphotericin (250 ng/ml), in the presence (treated batch) or in the absence (control) of the Ac-LPV-NH2* tripeptide, synthesized to order by Neosystem S.A., (Strasbourg).
(§3) After incubating for 3 h, 30 min, the messenger RNAs corresponding to these two batches of hair were purified from a “quick prep mRNA purification kit” marketed by Pharmacia. DNAs complementary to these mRNAs were then prepared by means of a reverse transcription kit marketed by Pharmacia, the manufacturer's instructions being followed, and then subjected to a polymerization chain reaction (PCR) stage by using primers specific for the mRNAs of glyceraldehyde-3-phosphate dehydrogenase (GAPDH), of IL-1α, of the type-1 IL-1 receptor and of the type-2 IL-1 receptor. The amounts of amplified DNA were then evaluated by electrophoresis on 1.5% agarose gel in the presence of ethidium bromide. […]

[4] = tested on: IL-1α; assay: Expression of IL-1α mRNA in plucked hairs (RT-PCR, relative to GAPDH), 3 h 30 min; type: cell-based, human; settings: treated batch vs control batch (100%), dose not given
Experimental: as §1, §2, §3

[5] = tested on: interleukin-1α; assay: Production of interleukin-1α in the supernatant of plucked hairs (ELISA); type: cell-based, human; settings: 20 hours; for % of inhibition: IL-1α in supernatant; for IL-1α: plucked hairs from inflammatory alopecia, control 21.8 pg/ml
Experimental: Dose-response activity of the Ac-LPV-NH2* tripeptide with respect to the production of interleukin-1α in the supernatant of plucked hairs emanating from a patient afflicted with inflammatory alopecia.
Plucked hairs were removed from the region of the vertex of a volunteer suffering from inflammatory alopecia. They were placed in a Williams' survival medium E (marketed by Gibco BRL) containing penicillin G (100 units/ml), streptomycin S (100 μg/ml) and amphotericin (250 ng/ml), in the presence or in the absence (control) of the Ac-LPV-NH2* tripeptide, synthesized to order by Neosystem S.A. (Strasbourg), at the doses indicated. After incubating for 20 hours, the culture supernatants were collected in a tube and then centrifuged for 5 minutes at 14,000 revolutions/minute (Eppendorff centrifuge, model 5415C). The supernatants were then collected in a clean tube and placed at 4° C.
The interleukin-1α concentration was then evaluated with respect to 100 μl of supernatant by means of a Biotrak ELISA kit marketed by Amersham, according to the manufacturer's instructions.

SMILES | PGE2 [1] | % inhibition [1] | expression of the mRNAs of IL-1α, % of the control ([2]; donor A, 1 μM) | expression of the mRNAs of IL-1α, % of the control ([2]; donor A, 10 μM) | expression of the mRNAs of IL-1α, % of the control ([2]; donor B, 0.1 μM) | expression of the mRNAs of IL-1α, % of the control ([2]; donor B, 1 μM) | expression of the mRNAs of IL-1α, % of the control ([2]; donor B, 10 μM) | % of expression IL-1R1 [3] | % of expression IL-1α [4] | % of inhibition ([5]; dose 1 μM) | IL-1α ([5]; dose 1 μM) | % of inhibition ([5]; dose 10 μM) | IL-1α ([5]; dose 10 μM)
CC(=O)N[C@@H](CCCCN)C(=O)N1CCC[C@@H]1C(=O)N[C@H](C(N)=O)C(C)C [Ac-L-(D)P-V-NH2***, Acetyl-(L) Lys-(D) Pro-(L) Val-NH2] (Ac-Lys-[dP]-Val-NH2) | 24.6 pg/mL | 75% | – | – | – | – | – | – | – | – | – | – | –
CC(=O)N[C@@H](CCCCN)C(=O)N1CCC[C@H]1C(=O)N[C@H](C(N)=O)C(C)C [Acetyl-(L) Lys-(L) Pro-(L) Val-NH2, reference compound] (Ac-Lys-Pro-Val-NH2) | 10.0 pg/mL | 90% | – | – | – | – | – | – | – | – | – | – | –
CC(=O)N[C@H](CCCCN)C(=O)N1CCC[C@@H]1C(=O)N[C@@H](C(N)=O)C(C)C [Acetyl-(D) Lys-(D) Pro-(D) Val-NH2] (Ac-[dK]-[dP]-[dV]-NH2) | 28.0 pg/mL | 78% | 51% | 28% | 53% | 62% | 28.7% | 26% | 0% | 49% | 11.1 pg/mL | 72% | 6.1 pg/mL
